Source: patent US20260337190A1, “CRYSTAL FORM OF PYRIDINOPYRIMIDINONE COMPOUND, ACID SALT THEREOF, CRYSTAL FORM OF ACID SALT THEREOF, AND USE” (Wuhan Humanwell Innovative Drug Research and Development …, priority 2022, published 2026)

How the values were obtained:
KRAS G12C-SOS1 [1] = target: T1, KRAS G12C-SOS1 (Homo sapiens, UniProt Q07889); test: Inhibition of KRAS G12C::SOS1 binding; conditions: summary statement
T1 sequence (Q07889 1-1333): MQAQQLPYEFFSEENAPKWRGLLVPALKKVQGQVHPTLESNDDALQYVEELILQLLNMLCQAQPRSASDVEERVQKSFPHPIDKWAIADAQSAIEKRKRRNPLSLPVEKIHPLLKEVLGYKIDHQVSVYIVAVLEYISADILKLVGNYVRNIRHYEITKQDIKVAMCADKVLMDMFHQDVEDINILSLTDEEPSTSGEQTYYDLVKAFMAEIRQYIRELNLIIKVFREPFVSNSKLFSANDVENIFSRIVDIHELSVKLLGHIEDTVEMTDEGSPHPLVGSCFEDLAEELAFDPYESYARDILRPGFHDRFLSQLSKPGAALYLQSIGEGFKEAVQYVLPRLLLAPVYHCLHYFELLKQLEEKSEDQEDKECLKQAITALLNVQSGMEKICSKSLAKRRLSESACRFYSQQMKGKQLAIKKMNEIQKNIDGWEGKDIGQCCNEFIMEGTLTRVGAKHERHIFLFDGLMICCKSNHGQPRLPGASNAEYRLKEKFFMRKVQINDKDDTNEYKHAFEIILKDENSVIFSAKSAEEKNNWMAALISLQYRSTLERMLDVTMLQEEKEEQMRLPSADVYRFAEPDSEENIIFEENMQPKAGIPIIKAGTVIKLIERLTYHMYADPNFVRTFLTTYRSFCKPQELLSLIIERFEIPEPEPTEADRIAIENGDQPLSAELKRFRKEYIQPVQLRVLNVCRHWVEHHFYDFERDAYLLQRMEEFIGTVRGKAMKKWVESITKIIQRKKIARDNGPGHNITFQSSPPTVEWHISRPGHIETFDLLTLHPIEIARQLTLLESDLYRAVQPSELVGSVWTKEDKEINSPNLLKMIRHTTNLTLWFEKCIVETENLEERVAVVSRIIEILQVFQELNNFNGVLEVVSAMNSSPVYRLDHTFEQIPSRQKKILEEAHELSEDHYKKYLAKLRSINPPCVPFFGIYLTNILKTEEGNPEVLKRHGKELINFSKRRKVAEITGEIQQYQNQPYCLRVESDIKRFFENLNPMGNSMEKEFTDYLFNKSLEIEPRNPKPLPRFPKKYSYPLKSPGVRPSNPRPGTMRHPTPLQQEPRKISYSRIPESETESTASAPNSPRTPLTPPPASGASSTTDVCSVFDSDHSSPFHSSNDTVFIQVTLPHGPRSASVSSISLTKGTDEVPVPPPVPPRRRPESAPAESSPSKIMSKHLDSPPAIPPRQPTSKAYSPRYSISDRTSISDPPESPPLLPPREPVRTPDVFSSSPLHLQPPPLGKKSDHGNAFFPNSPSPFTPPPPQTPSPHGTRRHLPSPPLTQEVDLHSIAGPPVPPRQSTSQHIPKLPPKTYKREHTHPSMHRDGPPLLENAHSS

LOVO tumor = test: In vivo efficacy on LOVO colorectal cancer; parameters: species or system mice
Procedure: (§1) After one week of adaptive feeding of mice, LOVO cells in a logarithmic phase were resuspended in serum-free F12K, 5×10^6 LOVO cells were inoculated subcutaneously at the right flank at 100 μL per mouse, and tumor growth was observed regularly. When the tumor grew to an average volume of 150 to 200 mm^3, the mice were randomly divided into a model group and an administration group based on the tumor size and body weight. The tumor size and body weight were measured and recorded before and during the administration. After the treatment, the tumor size in the model group was compared with that in the administration group to determine the efficacy.

Mia Paca-2 tumor = test: In vivo efficacy on Mia Paca-2 pancreatic cancer (alone or with trametinib); parameters: species or system mice
Procedure: as §1, with “of mice, Mia Paca-2 cells in” for “of mice, LOVO cells in”, “in serum-free DMEM, and then mixed with Matrigel in a ratio of 1:1. 1×10^7 Mia Paca-2 cells were” for “in serum-free F12K, 5×10^6 LOVO cells were”, “administration group (single drug, in combination with trametinib) based on” for “administration group based on”

KRAS G12C-SOS1 [2] = target: T1, KRAS G12C-SOS1; test: Inhibitory effect on KRAS G12C-SOS1; assay type: biochemical; parameters: SOS1 catalytic domain likely; conditions: summary statement
CYP3A4 = target: T2, CYP3A4 (Homo sapiens, UniProt P08684); test: Inhibition of cytochrome P450 CYP3A4 (substrates midazolam and testosterone); assay type: in vitro ADME; conditions: role: inhibitor; summary statement
T2 construct: probe substrates midazolam and testosterone, ketoconazole control
T2 sequence (P08684 whole entry): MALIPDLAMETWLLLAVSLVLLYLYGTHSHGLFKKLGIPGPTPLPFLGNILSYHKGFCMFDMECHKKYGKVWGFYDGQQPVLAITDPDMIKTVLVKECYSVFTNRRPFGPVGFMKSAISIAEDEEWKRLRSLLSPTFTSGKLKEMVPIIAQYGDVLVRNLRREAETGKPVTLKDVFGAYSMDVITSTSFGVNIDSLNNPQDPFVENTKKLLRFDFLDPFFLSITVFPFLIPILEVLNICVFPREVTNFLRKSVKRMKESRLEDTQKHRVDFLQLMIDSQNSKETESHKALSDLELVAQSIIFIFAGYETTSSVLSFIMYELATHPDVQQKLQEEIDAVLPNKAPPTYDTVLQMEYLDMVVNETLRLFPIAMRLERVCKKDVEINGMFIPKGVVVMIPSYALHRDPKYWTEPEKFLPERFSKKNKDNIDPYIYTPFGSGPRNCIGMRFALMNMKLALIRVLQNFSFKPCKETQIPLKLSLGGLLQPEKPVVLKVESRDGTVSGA

[3] = test system: ERK phosphorylation level in DLD-1 cells; test: Inhibition of ERK phosphorylation level in DLD-1 cells (intracellular western blot); assay type: cell-based; conditions: summary statement
Procedure: Intracellular western blot quantitative analysis was used to detect the inhibitory level of compounds on ERK phosphorylation in DLD-1 cells.
DLD-1 cells (ATCC, CCL-221) were seeded in a T75 culture flask at 2.5×10^6 cells/flask, and cultured in a RPMI 1640 medium containing 10% FBS for 2 days. On day 3, the cells were seeded on a 384-well plate, and cultured overnight at 37 °C, 5% CO2. After overnight culture, the plate was added with serially diluted compounds (the final content of DMSO was 0.5%), the negative group was added with DMSO, and incubated in a 37 °C, 5% CO2 incubator.
The cells were fixed, washed once with PBS, treated to disrupt membranes, and blocked at room temperature for 1 h. The blocking solution was removed. The plate was added with primary antibody (CST, Cat. No. #4370S), and incubated overnight at 4 °C The plate was washed 3 times with PBST (PBS solution added with 0.05% Tween-20), and soaked for 2 min each time. The plate was added with secondary antibody (LI-COR, Cat. No. 926-32211), and incubated at room temperature in the dark. The plate was washed 3 times with PBST, and soaked for 2 min each time.
The plate was centrifuged at 1000 rpm for 1 min, scanned on a two-color infrared laser imaging system (Odyssey® CLX) to read the signal.
Relative signal=800-channel signal values/700-channel signal values. […]
IC50 values were calculated using Graphpad 5 software.

inhibitory effect on KRAS G12C::SOS1 binding (KRAS G12C-SOS1 [1]): significant inhibitory effect
inhibitory effect on KRAS G12C-SOS1 (KRAS G12C-SOS1 [2]): significant inhibitory effect
inhibitory effect on CYP3A4 enzymes (CYP3A4): no inhibitory effect
SMILES: Cc1nc(N[C@H](C)c2cccc(S(F)(F)(F)(F)F)c2)c2cn(C3(CF)CC3)c(=O)cc2n1 [compound of formula I, (R)-6-(1-(fluoromethyl)cyclopropyl)-2-methyl-4-((1-(3-(pentafluorosulfanyl)phenyl)ethyl)amino)pyrido[4,3-d]pyrimidin-7(6H)-one]
inhibitory effect on LOVO tumor tissue growth vs control compound II (LOVO tumor; comparison with control compound II): better than that of the control compound II
inhibitory effect on LOVO tumor tissue growth (LOVO tumor; mouse, in vivo): significant inhibitory effect
inhibitory effect on Mia Paca-2 tumor growth (Mia Paca-2 tumor; alone or in combination with trametinib): significant inhibitory effect
combined use with trametinib vs single use, Mia Paca-2 tumor growth (Mia Paca-2 tumor; in combination with trametinib): more effective than the single use
inhibitory effect on the ERK phosphorylation level in DLD-1 cells [3]: significant inhibitory effect
